Three compounds from ChEMBL document CHEMBL1135919, “Synthesis of photoreactive phosphatidic acid analogues displaying activatory properties on cyclic AMP-phosphodiesterases. Photoaffinity labeling of an isoform of phosphodiesterase” (J Med Chem, 2002) can be followed below.

This experiment deals with T1, 3',5'-cyclic-AMP phosphodiesterase 4D (Rattus norvegicus, UniProt P14270).
T1 sequence (P14270 whole entry): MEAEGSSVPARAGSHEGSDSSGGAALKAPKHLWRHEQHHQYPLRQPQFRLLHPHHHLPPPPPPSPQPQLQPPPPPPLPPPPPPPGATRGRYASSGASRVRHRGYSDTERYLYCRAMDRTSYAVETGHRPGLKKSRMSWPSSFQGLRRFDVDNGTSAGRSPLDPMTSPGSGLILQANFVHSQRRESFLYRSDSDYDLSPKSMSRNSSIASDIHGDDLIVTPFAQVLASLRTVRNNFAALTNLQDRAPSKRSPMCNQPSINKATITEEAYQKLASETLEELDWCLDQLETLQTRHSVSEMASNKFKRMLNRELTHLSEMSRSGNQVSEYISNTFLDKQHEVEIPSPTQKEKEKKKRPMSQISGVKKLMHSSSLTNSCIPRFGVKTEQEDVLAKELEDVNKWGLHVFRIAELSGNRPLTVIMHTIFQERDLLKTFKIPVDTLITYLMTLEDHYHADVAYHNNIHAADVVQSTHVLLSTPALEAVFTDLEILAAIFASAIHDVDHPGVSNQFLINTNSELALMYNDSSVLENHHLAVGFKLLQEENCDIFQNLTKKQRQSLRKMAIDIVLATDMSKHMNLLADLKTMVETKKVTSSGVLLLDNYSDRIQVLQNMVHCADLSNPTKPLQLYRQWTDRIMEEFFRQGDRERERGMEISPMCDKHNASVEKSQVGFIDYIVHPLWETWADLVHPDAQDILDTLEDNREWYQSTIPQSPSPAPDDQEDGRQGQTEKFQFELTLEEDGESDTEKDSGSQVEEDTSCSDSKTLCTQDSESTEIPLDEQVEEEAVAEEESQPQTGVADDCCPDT
In words: Activation of PDE4D3 (phosphodiesterase). The experiment is classed as functional.
Turning to `CCCCCCCC/C=C/CCCCCCCC(=O)OC(COC(=O)CCCCCCCCCCCNC(=O)c1c(F)c(F)c(N=[N+]=[N-])c(F)c1F)COP(=O)(O)O` (stereo not drawn), the concentration for a half-maximal effect (EC50) is 23.5 µM.
As to `CCCCCCCC/C=C/CCCCCCCC(=O)OCC(COP(=O)(O)O)OC(=O)CCCCCCCCCCCNC(=O)c1c(F)c(F)c(N=[N+]=[N-])c(F)c1F` (stereo not drawn), the half-maximal effective concentration (EC50) is 23.5 µM.
`CCCCCCCCCCCCCCCC(=O)OCC(COP(=O)(O)O)OC(=O)CCCCCCCCCCCNC(=O)c1c(F)c(F)c(N=[N+]=[N-])c(F)c1F` (stereo not drawn) gave an EC50 of 24.2 µM.
